# Source: patent EP0106571A2, “Prophylactic substance or composition” (priority 1982, dated 1984)
# Like-named read-outs stand apart in the source and are kept apart here.
# How the values were obtained:
# human cancer cells = assay: Proliferation suppressive effect of prostaglandins (statement, no method); assay type: cell-based; conditions: compared with PGEI; no conditions given
# [1] = test system: Human osteogenic sarcoma cells; assay: Colony growth over three weeks with fatty acids or prostaglandins, Amidoschwarz stain; assay type: cell-based; conditions: for colonies in supplemented cultures: 20 µg/ml of medium added every second day, 500, 1,000 and 2,000 cell density cultures
# Protocol: Human osteogenic sarcoma cells were seeded into 50 ml Greiner plastic flasks and maintained exactly as explained in Example 4.
# At the end of three weeks the culture flasks were stained with a 0.1% Amidoschwarz stain solution.
# [2] = test system: MG63 Human osteogenic sarcoma cells; assay: Colony formation after 7 days with two additions of fatty acid; assay type: cell-based; conditions: for proliferation suppressive action: higher levels of supplementation, 80 and 100µg/ml; for suppressive action on proliferation and colony formation: dose series 5 to 100 µg/ml; for cell growth and colony formation: levels of supplementation above 40 µg/ml culture medium; for cells or colonies found on microscopic examination: supplementation levels between 40 and 100 µg/ml
# Protocol: MG63 Human osteogenic sarcoma cells were seeded in culture flasks as described in Examples 4 and 5. 2,000 cells were seeded in each flask. Duplicate sets of flasks were used for each of the fatty acids tested. The following fatty acids dissolved in standard growth medium were added to the cells in culture, after allowing 2 days for cell attachment, and again after a further 3 days. Each culture therefore had only 2 additions of the relevant fatty acid. The cells were stained and examined at the end of 7 days in culture: • 1. Culture medium only - control. • 2. 5, 10, 20, 40, 60, 80 and 100µg oleic acid respectively /ml culture medium. […] 5; 10, 20, 40, 60, 80 and 100µg LA respectively /ml culture medium. • 4. 5, 10, 20, 40, 60, 80 and […] ALA respectively ./ml culture. medium. • 5. 5, 10, 20, 40, 60, 80 and 100µg/ml AA respectively /ml culture medium. • 6. 5, 10, 20, 40, 60, 80 and 100µg/ml EPA respectively /ml culture medium. • ..7.
# BL6 mouse melanoma cells [3] = conditions: GLA doses above 7 µg/ml, single dose, 7 days, plateau of the curve
# Protocol: (§1) Thus each culture set comprised 13 separate experiments. […] Each set of dosages was duplicated for both cell lines. Thus, a total of 280 separate cultures were used for these determinations. For statistical treatment an average value of each duplicate was used as n = I. • (i) Growth Curves Protocol: The cells were seeded in a standard growth medium (McCoys 5A medium) from stock cultures into Greiner 50 ml plastic flasks at subconfluent densities ranging from I x 10^5 cells/flask.
# (§2) These cultures flasks were incubated in a humidified atmosphere of 5% C02, 95% air at 37°C for 7 days. After this period cell counts and viabilities were determined, the latter by trypan blue dye exclusion.
# (§3) Data Reduction and Statistical Analyses: Using the values of cell counts obtained as described above, the difference of each cell count from its control was expressed as a perecentage of the control. As the growth curves were repeated several times for each dose for both normal and cancer cells, the mean value and standard error was determined for each dose. […] For the purpose of presentation these percentage differences are expressed as the percentage reduction of growth rate (-GR%).
# MDBK bovine kidney cells = conditions: any of the GLA doses (0.5 to 10 µg/ml), 7 days
# Protocol: as §1, §2, §3
# BL6 mouse melanoma cells [4] = assay: cells
# Protocol: as §1
# Plates were incubated in a 5% C02 humidified atmosphere at 37 °C. For the final 24 hours, 0.4 µCl of [6^-3H]-thymidine or I µCl of L-[methyl -^3H] -methionine (New England Nuclear, Boston, Mass) was added to each incubation mixture on the micrplate. The cells were then collected using a Skatron automatic harvester onto glass fibre reinforced resin filters. The filters were dried and dissolved in 10 ml Picofluor ^TM30 (Packard). The [6-^3H] -thymidine incorporation into DNA and the L-[methyl-^3H] -methionine incorporation into proteins was counted on a Packard Tri-Carb scintillation counter.
# human hepatoma cells = assay: cells; conditions: for inhibition at 20 µg/mL: Homo sapiens, read-out: Reduction in growth rate (%), daily GLA 20 µg/ml; for GLA supplemented cell number (x10^4) Mean: daily GLA 20 µg/ml, n = 4
# Protocol: To control flasks only 20µl of the sodium carbonate vehicle was added.
# Cells: Cells of the human primary carcinoma of the liver line were provided by Dr. J.J. Alexander of the Division of Virology, Department of Microbiology, Medical University of South Africa. These cells were maintained in Grenier plastic flasks in McCoys 5A medium as described in Example I.
# The cells were seeded in the standard growth medium from stock cultures into Greiner 50 ml plastic flasks at subconfluent densities ranging from 2 x 10^5 to 3 x 10^5 cells per flask. […] These culture flasks were included in a humidified atmosphere of 5% CO2, 95% air at 37°. At the end of each experiment the detached, dead cells were discarded with the culture medium. The living attached cells were trypsinised and then counted using a Coulter counter. Cell viability was checked by trypan blue dye exclusion. In addition, the culture flasks were viewed and photographed daily under a Nikon diaphot inverted phase microscope.
# The cells were counted after 4 days in culture.
# [5] = test system: MG63 osteoid-sarcoma cells; conditions: for Cell count (x 10^6) + GLA Mean: MG63, seeding density 0,3, daily GLA, n = 4
# Excerpt: (§4) Cells: MG63. osteoid-sarcoma cells were obtained from Flow Laboratories. Oesophageal carcinoma cells were obtained from Prof. J. Alexander of the Department of Microbiology at Medunsa, South Africa. Control benign bovine kidney cells (MDBK) were from the same stock that were used in the previous examples.
# [6] = test system: Oesophageal carcinoma cells; conditions: 10 µg GLA per day for six days; for Cell count (x 10^6) + GLA Mean: Oesophageal Carcinoma, seeding density 0,14, n = 4
# Excerpt: as §4
# [7] = test system: benign bovine kidney cells (MDBK); conditions: for Cell count (x 10^6) + GLA Mean: MDBK, seeding density 0,3, daily GLA, n = 4
# Excerpt: as §4
# BL6 mouse melanoma cells [8] = conditions: GLA 20 µg/ml daily for two weeks
# Protocol: Only 20µI of the sodium carbonate vehicle was added to control flasks.
# Malignant BL6 mouse melanoma cells were maintained in Griener plastic flasks (Labortechnik) containing 10% fetal calf serum (Flor Laboratories) and antibiotics. Stock cultures were refed twice weekly and were subcultured at. weekly intervals or sooner if required. The BL6 mouse melanoma cells were supplied by Dr. C. Albrecht, Department of Pharmacology, University of Stellenbosch, South Africa.
# Duplicates were set up for the three densities.
# The culture flasks were incubated in a humidified atmosphere of 5% C02, 95% air at 37°C. At the end of the two weeks period the culture flasks were stained using a 0.1% Amidoschwarz stain solution.
# [9] = 20 µg/ml of medium added every second day
# [10] = 5 µg/ml of medium added every second day
compound,measurement,setting,value
CCCCC[C@H](O)/C=C/[C@@H]1[C@@H](C/C=C\CCCC(=O)O)[C@@H](O)C[C@H]1O [PGF2a],proliferation suppressive effect on human cancer cells,human cancer cells,no effect at all
"CCCCC/C=C\C/C=C\CCCCCCCC(=O)O [LA, linoleic acid]",growth suppressive effect on the cancer cells in culture (summary),[1]; [9],some growth suppressive effect
same,activity at 20 µg/mL,"[1]; Homo sapiens, 504 h, 20 µg/ml of medium added every second day, read-out: growth achieved relative to control cultures",~75%
same,proliferation suppressive action,[2]; 2 additions,definite proliferation suppressive action
"CCCCC/C=C\C/C=C\C/C=C\CCCCC(=O)O [GLA, gamma linolenic acid]",percentage reduction of growth rate (-GR%),BL6 mouse melanoma cells [3],about 70%
same,response of growth rate to GLA,MDBK bovine kidney cells,no apparent response
same,inhibition at 10 µg/mL,BL6 mouse melanoma cells [4]; read-out: reduction in methionine uptake,58.9%
same,inhibition at 10 µg/mL,BL6 mouse melanoma cells [4]; read-out: reduction in thymidine uptake,59.1%
same,inhibition at 20 µg/mL,"human hepatoma cells; 24 h, day 1, versus control flasks (negative = more cells than control)",-44%
same,inhibition at 20 µg/mL,"human hepatoma cells; 48 h, day 2, versus control flasks",66%
same,inhibition at 20 µg/mL,"human hepatoma cells; 72 h, day 3, versus control flasks",78%
same,inhibition at 20 µg/mL,"human hepatoma cells; 96 h, day 4 Run 1, versus control flasks",87%
same,inhibition at 20 µg/mL,"human hepatoma cells; 96 h, day 4 Run 2, versus control flasks",78%
same,GLA supplemented cell number (x10^4) Mean,human hepatoma cells; day 1,"8,12 x10^4"
same,GLA supplemented cell number (x10^4) Mean,human hepatoma cells; day 2,"3,79 x10^4"
same,GLA supplemented cell number (x10^4) Mean,human hepatoma cells; day 3,"3,35 x10^4"
same,GLA supplemented cell number (x10^4) Mean,human hepatoma cells; day 4 Run 1,"2,96 x10^4"
same,GLA supplemented cell number (x10^4) Mean,human hepatoma cells; day 4 Run 2,"7,25 x10^4"
same,difference between growth rates of GLA supplemented and control cells,"human hepatoma cells; single dose of GLA 20 µg/ml on day 1, after four days",no significant difference
same,cell count,"human hepatoma cells; single dose of GLA 20 µg/ml on day 1, counted after four days, n = 8, spread printed ± 4.85",19.81 x 104
same,Cell count (x 10^6) + GLA Mean,[5]; day 2,"0,19 x 10^6"
same,Cell count (x 10^6) + GLA Mean,[5]; day 3,"0,31 x 10^6"
same,Cell count (x 10^6) + GLA Mean,[5]; day 4,"0,48 x 10^6"
same,growth suppressive effect,"[5]; MG63 cells, daily GLA supplementation, over seven days, versus untreated MG63 cells, 10080 min",76%
same,Cell count (x 10^6) + GLA Mean,[6]; day 2,"0,14 x 10^6"
same,Cell count (x 10^6) + GLA Mean,[6]; day 3,"0,22 x 10^6"
same,Cell count (x 10^6) + GLA Mean,[6]; day 4,"0,31 x 10^6"
same,Cell count (x 10^6) + GLA Mean,[6]; day 5,"0,68 x 10^6"
same,Cell count (x 10^6) + GLA Mean,[6]; day 6,"0,63 x 10^6"
same,Cell count (x 10^6) + GLA Mean,[6]; day 7,"1,82 x 10^6"
same,Cell count (x 10^6) + GLA Mean,[6]; day 8,2.04 x 10^6
same,growth suppressive effect,"[6]; oesophageal carcinoma cells, end of the eight day period, 11520 min",69%
same,mean number of GLA supplemented cells compared with unsupplemented cells,"[7]; MDBK cells, end of the seven day period",exceed
same,Cell count (x 10^6) + GLA Mean,[7]; day 2,"0,43 x 10^6"
same,Cell count (x 10^6) + GLA Mean,[7]; day 3,"0,70 x 10^6"
same,Cell count (x 10^6) + GLA Mean,[7]; day 6,"1,53 x 10^6"
same,Cell count (x 10^6) + GLA Mean,[7]; day 7,"1,81 x 10^6"
same,growth and proliferation,BL6 mouse melanoma cells [8],completely suppressed
same,colonies observed,"BL6 mouse melanoma cells [8]; 500, 1,000 or 2,000 cells seeded per flask",not a single colony
same,growth suppressive effect on the cancer cells in culture (summary),[1]; [9],complete growth suppressive effect
same,colonies in supplemented cultures,[1],completely devoid of any colonies
same,suppressive action on proliferation and colony formation,[2]; 2 additions,"almost equal, progressive, suppressive action"
same,cell growth and colony formation,[2]; 2 additions,completely suppressed
same,cells or colonies found on microscopic examination,[2],Not a single cell or colony of cells could be found
"CCCCCCCC/C=C\CCCCCCCC(=O)O [OA, Oleic acid]",growth achieved relative to control cultures,[1]; [9],about the same growth as control cultures
same,growth suppressive effect on the cancer cells in culture (summary),[1]; [9],no suppressive effect
same,densities of colonies,"[2]; all levels of supplementation between 5 and 100µg/ml, 2 additions, compared with culture medium only",equal densities of colonies
"CC/C=C\C/C=C\C/C=C\CCCCCCCC(=O)O [ALA, a-linolenic acid, reference compound]",proliferation suppressive action,[2]; 2 additions,definite proliferation suppressive action
CCCCC[C@H](O)/C=C/[C@@H]1[C@@H](CCCCCCC(=O)O)[C@@H](O)C[C@H]1O [PGF1a],growth achieved relative to control cultures,[1]; [10],about the same growth as the control cultures
same,growth suppressive effect on the cancer cells in culture (summary),[1]; [10],no effect at all
same,proliferation suppressive effect on human cancer cells,human cancer cells,no effect at all
"CCCCC/C=C\C/C=C\C/C=C\C/C=C\CCCC(=O)O [AA, arachidonic acid]",growth suppressive effect on the cancer cells in culture (summary),[1]; [9],complete growth suppressive effect
same,colonies in supplemented cultures,[1],completely devoid of any colonies
same,suppressive action on proliferation and colony formation,[2]; 2 additions,"almost equal, progressive, suppressive action"
same,cell growth and colony formation,[2]; 2 additions,completely suppressed
same,cells or colonies found on microscopic examination,[2],Not a single cell or colony of cells could be found
"CCCCC[C@H](O)/C=C/[C@H]1[C@H](O)CC(=O)[C@@H]1CCCCCCC(=O)O [PGE1, prostaglandin E 1]",growth suppressive effect on the cancer cells in culture (summary),[1]; [10],more pronounced growth suppressive effect
same,activity at 5 µg/mL,"[1]; Homo sapiens, 504 h, 5 µg/ml of medium added every second day, read-out: growth achieved relative to control cultures",~25%
CCCCC[C@H](O)/C=C/[C@H]1C=CC(=O)[C@@H]1CCCCCCC(=O)O [PGA1],growth suppressive effect on the cancer cells in culture (summary),[1]; [10],more pronounced growth suppressive effect
